Entries after “also recorded” stand apart in the source; their conditions may differ.
Legend:
ATDC [1] = assay: Western blot analysis of ATDC after miRNA mimic transfection, BXPC-3 cells; format: cell-based, human; conditions: 36 h after transfection with miRNA mimics
Method: (§1) FIGS. 31A and B are L3.6PL cells, and FIGS. 31 C and D are BXPC3 cells. The lanes in these figures is as follows: 1(a). Lipofectamine2000 only; 2(b). Control miRNA; 3. miR-299-5p; 4. miR-185; 5. miR-522; 6. miR-506; 7. miR-765; 8. miR-362; 9. miR-515-5p; 10. miR-661; 11. miR-525; c. miR-34a; d. miR-34b; e. miR-34c; f. miR-150; g. miR-296; h. miR-500; and i. miR-650.
(§2) For testing the miRNAs for ATDC, Western blot analysis of pancreatic cancer cells transfected was carried out with the miRNAs by Lipofactamine2000. […] They are miR-34a, miR-34c, miR-296, miR-650, miR-299-5p, miR-185, miR-765, miR-522, and miR-362.

ATDC [2] = assay: Western blot analysis of ATDC after miRNA mimic transfection, L3.6PL cells; format: cell-based, human; conditions: 36 h after transfection with miRNA mimics
Method: as §1, §2

ATDC [3] = assay: ATDC gene expression in gastric cancer KATO III cells; format: cell-based; conditions: human gastric cancer KATO III cells
Method: Next, the miRNAs regulation of ATDC by qRT-PCR was examined. 24 hours after miRNA mimic transfection of the cancer cells (100 pmol per well in 6-well plates), ATDC mRNA levels were measured by qRT-PCR with TaqMan SYBR Green PCR System (Applied Biosystems). Briefly, total RNA was extracted from the transfected cells using TRIZOL (Invitrogen) according to the manufacturer's instructions. Reverse transcription was performed using a TaqMan Reverse Transcription Kit (Applied Biosystems). For qRT-PCR, 1 μl of gene primers with SYBR Green (Applied Biosystems) in 20 μl of reaction volume was applied. Primers for ATDC: Forward: 5′-[…]-3′ (SEQ ID NO:45), Reverse: 5′-[…]-3′ (SEQ ID NO:46).

ATDC [4] = assay: ATDC localization after nuclear export inhibition, Panc-1 cells; format: cell-based, human; conditions: 1 ng/ml, 6 hours
Method: In previous reports, ATDC was described as being predominately cytoplasmic in several cell types (see, e.g., Reymond A, et al., Embo J 2001; 20, 2140-2151; Brzoska P M, et al., Proc. Natl. Acad. Sci. USA 1995; 92, 7824-7828), conflicting with its potential role in the DNA damage response/DNA repair. In localization studies, it was determined that both endogenous ATDC and GFP-tagged ATDC had predominantly cytoplasmic localization, with some staining in the nucleus. To better understand how a protein with predominately cytoplasmic localization might be involved in the DNA response, wild type Panc-1 cells was treated with the nuclear export inhibitor leptomycin B (1 ng/ml) for 6 hours.

Dvl-2 [5] = assay: Western blot after Dvl-2 shRNA transfection, HEK 293 cells; format: cell-based, human; conditions: transient transfection
Method: (§3) FIG. 26. The oncogenic effects of ATDC are mediated by Dvl-2. (A. B) The effects of Dvl-2 shRNA 1 or 2 on b-catenin expression is shown in representative Western blots of HEK 293 (A) and MiaPaCa2 cells […] with or without ATDC overexpression. (C, D) TCF reporter activity was assessed in Dvl-2 shRNA 1 or 2-transfected HEK 293 (C) or Mia PaCa2 cells (D) with (+) or without (−) ATDC overexpression. The results from 3 separate experiments, performed in triplicate (*p<0.05 vs empty vector-transfected cells). (E. F) MTS proliferation assays in Dvl-2 shRNA1 or 2-transfected HEK 293 (E) and MiaPaCa2 (F) cells with (+) or without (−) ATDC overexpression (n=3, *p<0.05 vs wild type cells). (G) TCF reporter activity was measured in HEK 293, SW480, DLD-1 and HCT-116 cells with vector (white bars) or ATDC (black bars) transfection using the β-catenin responsive TOPFLASH reporter and the mutant control FOPFLASH reporter. The mean of the TOP/FOP ratio, as compared with the activity, for three independent experiments, performed in triplicate. […] The experiments were repeated three times and the data is expressed as the mean±SE. […] 48 hours after transfection, cell growth rates were assessed. […]

Dvl-2 [6] = assay: Western blot after Dvl-2 shRNA transfection, MiaPaCa2 cells; format: cell-based, human; conditions: transient transfection
Method: as §3

Molecule | ATDC protein levels (ATDC [1]) | ATDC protein levels (ATDC [2]) | further results
miR-765: miRNA mimic (GUAGUGGAAGGAAGAGGAGGU; listed as RNA, chemistry not given here; listed as Homo sapiens) | potently reduced | potently reduced; also recorded: less potent | –
miR-185: miRNA mimic (CUUGACGGAAAGAGAGGU; listed as RNA, chemistry not given here; listed as Homo sapiens) | potently reduced | potently reduced | –
miR-362: miRNA mimic (UGAGUGUGGAUCCAAGGUUCCUAA; listed as RNA, chemistry not given here; listed as Homo sapiens) | potently reduced | potently reduced | –
miR-522: miRNA mimic (UUGUGAGAUUUCCCUUGGUAAAA; listed as RNA, chemistry not given here; listed as Homo sapiens) | potently reduced | potently reduced | –
miR-299-5p: miRNA mimic (UACAUACACCCUGCCAUUUGGU; listed as RNA, chemistry not given here; listed as Homo sapiens) | potently reduced | potently reduced | –
miR-34a: miRNA mimic (UUGUUGGUCGAUUCUGUGACGGU; listed as RNA, chemistry not given here; listed as Homo sapiens) | potently reduced | potently reduced | ATDC gene expression (ATDC [3]): potently down-regulated; also recorded: significantly inhibited
miR-34c: miRNA mimic (CGUUAGUCGAUUGAUGUGACGGA; listed as RNA, chemistry not given here; listed as Homo sapiens) | potently reduced | potently reduced | –
miR-650: miRNA mimic (CAGGACUCUCGCGACGGAGGA; listed as RNA, chemistry not given here; listed as Homo sapiens) | potently reduced | potently reduced; also recorded: less potent | –
CCC(=C/[C@H](C)C/C=C/C(C)=C/[C@@H](C)C(=O)[C@@H](C)[C@H](O)[C@@H](C)C/C(C)=C/C(=O)O)/C=C/[C@@H]1OC(=O)C=C[C@@H]1C [leptomycin B] | – | – | ATDC localization (ATDC [4]): ATDC accumulation in the nucleus; ATDC localization (ATDC [4]; listed as leptomycin): nuclear retention of ATDC
Dvl-2 shRNA 1: shRNA to Dvl-2, sense and anti-sense SEQ ID NOs: 7 and 8 (OriGene) (nucleic acid, listed as Homo sapiens, the letters are possibly those of the target site) sense: CACCTGTAGCTGCCTTTGTTACTCTATTTATTTCGAAAAATAAATAGAGTAACAAAGGCAGCTACA antisense: AAAATGTAGCTGCCTTTGTTACTCTATTTATTTATTCGAAATAAATAGAGTAACAAAGGCAGCTACA | – | – | levels of Dvl-2 (Dvl-2 [5]): effective; levels of Dvl-2 (Dvl-2 [6]): effective
Dvl-2 shRNA 2: shRNA to Dvl-2, sense and anti-sense SEQ ID NOs: 9 and 10 (OriGene) (nucleic acid, listed as Homo sapiens, the letters are possibly those of the target site) sense: CACCGGACCGCATGTGGCTCAAGATCACCATCCCGAAGGATGGTGATCTTGAGCCACATGCGGTCC antisense: AAAAGGACCGCAGTGGCTCAAGATCACCATCCTTCGGGATGGTGATCTTGAGCCACATGCGGTCC | – | – | levels of Dvl-2 (Dvl-2 [5]): effective; levels of Dvl-2 (Dvl-2 [6]): effective
